IC50, Ratio IC50 and hepatocyte CLint data for 34 compounds are collected here from ChEMBL document CHEMBL4665778, “Discovery of Potent and Selective PI3Kγ Inhibitors” (J Med Chem, 2020).

For data set [1], the target named is PI3-kinase p110-alpha/p85-alpha (Homo sapiens, UniProt P42336).
Description: Inhibition of recombinant N-terminal FLAG-tagged full-length human PI3K p110alpha/human p85alpha co- expressed in Sf9 insect cells using phosphatidylinositol 4,5-bisphosphate as substrate preincubated for 60 mins followed by substrate addition and measured after 1 hr in presence of ATP by ADP-Glo lipid kinase assay
For a further data set, the species on record is Homo sapiens. As to the kind of experiment: Selectivity index, ratio of IC50 for N-terminal FLAG-tagged full-length human PI3K p110beta/human p85alpha to IC50 for recombinant N-terminal His-tagged full-length human PI3K p120gamma.
In data set [2] the target is T1, Phosphatidylinositol 4,5-bisphosphate 3-kinase catalytic subunit gamma isoform (Homo sapiens, UniProt P48736).
T1 sequence (P48736 whole entry, canonical isoform): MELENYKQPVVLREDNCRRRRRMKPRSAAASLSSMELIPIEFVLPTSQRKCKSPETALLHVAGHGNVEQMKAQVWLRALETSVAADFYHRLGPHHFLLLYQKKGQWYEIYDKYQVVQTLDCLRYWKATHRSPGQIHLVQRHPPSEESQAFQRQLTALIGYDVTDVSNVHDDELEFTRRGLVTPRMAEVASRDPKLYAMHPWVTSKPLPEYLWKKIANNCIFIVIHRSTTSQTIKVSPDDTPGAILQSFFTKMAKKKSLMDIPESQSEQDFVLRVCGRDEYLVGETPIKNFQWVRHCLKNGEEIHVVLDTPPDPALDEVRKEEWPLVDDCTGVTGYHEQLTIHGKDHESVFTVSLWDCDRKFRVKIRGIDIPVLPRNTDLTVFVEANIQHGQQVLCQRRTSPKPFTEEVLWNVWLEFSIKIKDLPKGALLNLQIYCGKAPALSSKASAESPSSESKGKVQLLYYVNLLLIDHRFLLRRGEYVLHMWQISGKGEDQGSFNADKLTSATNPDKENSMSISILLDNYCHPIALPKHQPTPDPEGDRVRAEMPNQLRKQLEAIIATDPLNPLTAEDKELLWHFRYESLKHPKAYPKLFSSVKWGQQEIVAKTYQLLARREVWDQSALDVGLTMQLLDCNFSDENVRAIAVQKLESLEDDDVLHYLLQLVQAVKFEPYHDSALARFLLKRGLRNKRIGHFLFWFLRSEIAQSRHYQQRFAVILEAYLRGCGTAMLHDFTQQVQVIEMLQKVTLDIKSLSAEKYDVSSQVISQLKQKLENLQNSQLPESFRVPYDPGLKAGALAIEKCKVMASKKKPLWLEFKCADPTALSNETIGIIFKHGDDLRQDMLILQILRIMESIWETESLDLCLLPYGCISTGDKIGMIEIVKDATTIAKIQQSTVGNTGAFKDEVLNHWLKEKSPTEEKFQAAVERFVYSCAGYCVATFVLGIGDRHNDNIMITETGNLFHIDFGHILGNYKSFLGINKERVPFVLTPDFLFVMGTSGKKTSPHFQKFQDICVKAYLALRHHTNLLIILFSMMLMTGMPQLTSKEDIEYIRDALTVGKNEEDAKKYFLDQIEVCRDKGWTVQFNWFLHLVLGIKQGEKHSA
Description: Inhibition of PI3Kgamma in human THP-1 cells assessed as reduction in Akt phosphorylation at S473 residue incubated for 60 mins by alphalisa assay
Data set [3] concerns the target T1, Phosphatidylinositol 4,5-bisphosphate 3-kinase catalytic subunit gamma isoform. The source holds these as a separate data set.
Description: Inhibition of recombinant N-terminal His-tagged full-length human PI3K p120gamma expressed in Sf9 insect cells using phosphatidylinositol 4,5-bisphosphate as substrate preincubated for 60 mins followed by substrate addition and measured after 1 hr in presence of ATP by ADP-Glo lipid kinase assay
For data set [4], the target named is PI3-kinase p110-delta/p85-alpha (Homo sapiens, UniProt O00329).
Chain of PI3-kinase p110-delta/p85-alpha (P27986 whole entry): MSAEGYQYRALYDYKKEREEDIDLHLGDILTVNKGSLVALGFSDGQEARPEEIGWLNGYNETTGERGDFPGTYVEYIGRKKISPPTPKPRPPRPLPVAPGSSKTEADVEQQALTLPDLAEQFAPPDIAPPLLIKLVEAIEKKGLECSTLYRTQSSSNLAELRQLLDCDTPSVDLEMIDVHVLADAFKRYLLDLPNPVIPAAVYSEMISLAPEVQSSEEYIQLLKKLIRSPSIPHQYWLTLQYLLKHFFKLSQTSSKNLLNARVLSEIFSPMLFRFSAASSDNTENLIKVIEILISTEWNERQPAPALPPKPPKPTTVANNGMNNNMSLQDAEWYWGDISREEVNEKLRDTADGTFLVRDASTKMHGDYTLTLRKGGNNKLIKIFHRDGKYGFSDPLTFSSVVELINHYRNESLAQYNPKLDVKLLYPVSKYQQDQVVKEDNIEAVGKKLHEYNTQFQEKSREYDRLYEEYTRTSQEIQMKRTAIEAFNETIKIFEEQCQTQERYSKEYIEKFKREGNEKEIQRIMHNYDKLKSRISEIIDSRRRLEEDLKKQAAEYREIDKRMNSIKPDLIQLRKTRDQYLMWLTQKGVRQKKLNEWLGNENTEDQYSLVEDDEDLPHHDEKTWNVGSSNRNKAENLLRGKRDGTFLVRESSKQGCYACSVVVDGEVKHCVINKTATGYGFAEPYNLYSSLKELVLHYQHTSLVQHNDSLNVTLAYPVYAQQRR
Chain of PI3-kinase p110-delta/p85-alpha (O00329 whole entry): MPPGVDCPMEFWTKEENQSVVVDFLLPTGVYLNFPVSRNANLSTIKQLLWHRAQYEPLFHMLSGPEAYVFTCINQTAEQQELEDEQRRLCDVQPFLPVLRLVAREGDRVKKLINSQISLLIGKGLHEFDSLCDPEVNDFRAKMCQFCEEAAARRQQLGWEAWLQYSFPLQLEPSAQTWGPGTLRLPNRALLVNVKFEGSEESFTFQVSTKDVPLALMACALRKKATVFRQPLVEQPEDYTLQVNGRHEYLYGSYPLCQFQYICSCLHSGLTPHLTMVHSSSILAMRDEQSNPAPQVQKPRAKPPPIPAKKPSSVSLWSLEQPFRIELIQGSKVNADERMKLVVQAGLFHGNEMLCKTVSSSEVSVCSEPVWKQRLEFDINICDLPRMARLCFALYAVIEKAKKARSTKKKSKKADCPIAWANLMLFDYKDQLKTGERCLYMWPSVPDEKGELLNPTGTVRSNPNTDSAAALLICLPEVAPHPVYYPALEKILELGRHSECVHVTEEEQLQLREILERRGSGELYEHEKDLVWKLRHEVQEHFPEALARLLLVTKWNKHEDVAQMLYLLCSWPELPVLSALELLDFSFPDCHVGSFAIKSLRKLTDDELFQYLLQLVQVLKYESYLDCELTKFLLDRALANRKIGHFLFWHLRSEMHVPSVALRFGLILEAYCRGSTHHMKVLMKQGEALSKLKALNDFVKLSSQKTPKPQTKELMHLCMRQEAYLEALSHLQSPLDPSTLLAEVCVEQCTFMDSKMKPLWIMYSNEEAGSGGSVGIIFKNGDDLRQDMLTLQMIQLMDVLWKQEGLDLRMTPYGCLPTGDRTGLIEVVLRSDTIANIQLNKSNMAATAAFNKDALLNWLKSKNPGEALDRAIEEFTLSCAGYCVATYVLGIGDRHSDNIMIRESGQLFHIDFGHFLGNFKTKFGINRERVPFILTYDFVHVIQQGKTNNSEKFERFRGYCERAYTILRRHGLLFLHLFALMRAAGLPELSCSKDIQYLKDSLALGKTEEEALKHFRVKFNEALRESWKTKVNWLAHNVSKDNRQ
Description: Inhibition of recombinant N-terminal GST-tagged full-length human PI3K p110delta/p85alpha co- expressed in Sf9 insect cells using phosphatidylinositol 4,5-bisphosphate as substrate preincubated for 60 mins followed by substrate addition and measured after 1 hr in presence of ATP by ADP-Glo lipid kinase assay
A further data set has as its target PI3K p110 beta/p85 alpha (Homo sapiens, UniProt P42338).
Data set [5] can be described thus: Intrinsic clearance rat hepatocytes assessed per 10^6 cells by LC-MS/MS analysis. It is filed as ADME, tissue-based, Hepatocyte. The settings on record: read-out: CLH.
Data set [6] in a line: Intrinsic clearance in human hepatocytes assessed per 10^6 cells at 0.5 uM by LC-MS/MS analysis. It is filed as ADME, cell-based, Hepatocyte. As to conditions: read-out: CLH.

Chain of PI3-kinase p110-alpha/p85-alpha (P27986 whole entry): as the sequence (P27986 whole entry) above
Chain of PI3-kinase p110-alpha/p85-alpha (P42336 whole entry): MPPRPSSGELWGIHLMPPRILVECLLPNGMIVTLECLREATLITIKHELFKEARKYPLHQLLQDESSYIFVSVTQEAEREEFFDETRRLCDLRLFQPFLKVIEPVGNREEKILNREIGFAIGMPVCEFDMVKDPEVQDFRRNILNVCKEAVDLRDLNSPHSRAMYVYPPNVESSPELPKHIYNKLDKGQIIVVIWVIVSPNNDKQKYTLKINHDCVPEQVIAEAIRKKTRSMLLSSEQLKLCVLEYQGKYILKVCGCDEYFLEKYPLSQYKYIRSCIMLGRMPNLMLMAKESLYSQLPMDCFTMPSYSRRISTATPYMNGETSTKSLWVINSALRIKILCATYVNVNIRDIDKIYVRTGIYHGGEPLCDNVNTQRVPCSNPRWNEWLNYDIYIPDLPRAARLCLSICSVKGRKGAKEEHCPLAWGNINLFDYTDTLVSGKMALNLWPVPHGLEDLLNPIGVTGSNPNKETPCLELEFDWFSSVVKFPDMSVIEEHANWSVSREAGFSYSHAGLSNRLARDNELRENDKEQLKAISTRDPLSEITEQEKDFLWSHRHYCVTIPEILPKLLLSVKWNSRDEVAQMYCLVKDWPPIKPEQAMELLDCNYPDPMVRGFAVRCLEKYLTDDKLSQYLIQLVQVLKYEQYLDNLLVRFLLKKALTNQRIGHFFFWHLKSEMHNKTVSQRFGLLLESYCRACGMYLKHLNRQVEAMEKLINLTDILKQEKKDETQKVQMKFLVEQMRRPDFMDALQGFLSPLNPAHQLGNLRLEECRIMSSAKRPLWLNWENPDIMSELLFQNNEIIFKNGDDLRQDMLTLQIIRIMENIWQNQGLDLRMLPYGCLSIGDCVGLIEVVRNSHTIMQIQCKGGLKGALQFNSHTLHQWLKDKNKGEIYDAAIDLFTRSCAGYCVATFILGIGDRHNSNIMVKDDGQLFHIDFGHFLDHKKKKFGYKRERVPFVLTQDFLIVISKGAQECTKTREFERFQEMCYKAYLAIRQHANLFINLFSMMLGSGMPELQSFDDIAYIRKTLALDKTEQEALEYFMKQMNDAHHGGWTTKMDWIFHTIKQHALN
Chain of PI3K p110 beta/p85 alpha (P27986 whole entry): as the sequence (P27986 whole entry) above
Chain of PI3K p110 beta/p85 alpha (P42338 whole entry): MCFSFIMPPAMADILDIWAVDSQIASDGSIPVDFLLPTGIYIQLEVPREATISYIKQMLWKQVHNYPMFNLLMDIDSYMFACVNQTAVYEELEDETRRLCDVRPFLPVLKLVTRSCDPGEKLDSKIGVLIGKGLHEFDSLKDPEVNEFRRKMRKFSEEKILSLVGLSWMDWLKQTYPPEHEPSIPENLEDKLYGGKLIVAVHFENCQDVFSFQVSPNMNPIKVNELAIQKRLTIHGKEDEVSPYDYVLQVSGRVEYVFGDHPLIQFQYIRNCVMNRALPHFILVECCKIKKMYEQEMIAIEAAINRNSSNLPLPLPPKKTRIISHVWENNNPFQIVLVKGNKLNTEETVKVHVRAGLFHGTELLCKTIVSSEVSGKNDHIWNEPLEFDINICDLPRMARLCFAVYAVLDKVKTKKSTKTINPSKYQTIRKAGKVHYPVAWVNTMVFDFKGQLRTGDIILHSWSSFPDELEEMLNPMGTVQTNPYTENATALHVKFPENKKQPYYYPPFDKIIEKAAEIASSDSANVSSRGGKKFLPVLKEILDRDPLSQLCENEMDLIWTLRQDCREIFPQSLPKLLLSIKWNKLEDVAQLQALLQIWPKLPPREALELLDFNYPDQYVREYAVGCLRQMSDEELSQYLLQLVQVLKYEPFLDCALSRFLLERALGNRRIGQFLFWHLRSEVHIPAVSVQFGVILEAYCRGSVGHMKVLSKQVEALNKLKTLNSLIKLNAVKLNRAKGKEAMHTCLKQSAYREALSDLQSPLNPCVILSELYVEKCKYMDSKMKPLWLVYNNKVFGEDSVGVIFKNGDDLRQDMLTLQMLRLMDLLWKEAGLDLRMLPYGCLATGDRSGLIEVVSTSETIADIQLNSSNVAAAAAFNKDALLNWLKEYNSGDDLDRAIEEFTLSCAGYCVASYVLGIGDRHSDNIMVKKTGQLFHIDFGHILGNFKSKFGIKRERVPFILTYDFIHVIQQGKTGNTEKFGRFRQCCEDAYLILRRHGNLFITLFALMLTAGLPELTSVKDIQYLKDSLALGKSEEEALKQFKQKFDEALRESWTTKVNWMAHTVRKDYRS
Description for PI3K p110 beta/p85 alpha: Inhibition of recombinant N-terminal FLAG-tagged full-length human PI3K p110beta/human p85alpha co- expressed in Sf9 insect cells using phosphatidylinositol 4,5-bisphosphate as substrate preincubated for 60 mins followed by substrate addition and measured after 1 hr in presence of ATP by ADP-Glo lipid kinase assay

With `CC(C)c1cc(-c2c(N)nn3ccc(-c4cc5c(c(C(F)(F)F)c4)C(=O)N([C@@H](C)C4CC4)C5)nc23)ccc1C(=O)O`, the IC50 in data set [1] amounted to 82.4 nM; in data set [2], 76 nM; in data set [3], 1 nM; in data set [4], 125 nM; against PI3K p110 beta/p85 alpha, 10100 nM. In addition, the Ratio IC50 in the data set filed under Homo sapiens worked out at 10100.

`COCC(=O)Nc1cn2nc(-c3cc(C)c4c(c3)CN([C@@H](C)C3CC3)C4=O)ccc2n1`: the IC50 is greater than 10000 nM in data set [1], 690 nM in data set [2], 14 nM in data set [3] and greater than 10000 nM in data set [4].

For `CC(=O)Nc1cc2nc(-c3cc4c(c(NS(C)(=O)=O)c3)C(=O)N([C@@H](C)C3CC3)C4)ccn2n1`, the IC50 was 8970 nM in data set [1], 160 nM in data set [2], 1.3 nM in data set [3] and 6140 nM in data set [4].

On to `Cc1cc(-c2ccc3[nH]c(N)nc3c2)cc2c1C(=O)N([C@@H](C)C1CC1)C2` (racemic), for which the IC50 (in data set [1]; in data set [3]; in data set [4]; against PI3K p110 beta/p85 alpha) was greater than 10000 nM throughout.

As for `Cc1cc(-c2ccn3nc(N)c(-c4nc[nH]n4)c3n2)cc2c1C(=O)N([C@@H](C)C1CC1)C2`, the IC50 turned out to be 6290 nM in data set [1], 630 nM in data set [2], 31 nM in data set [3] and 6050 nM in data set [4].

For `Cc1cc(-c2ccc3ncc(-c4cnn(C)c4)n3n2)cc2c1C(=O)N([C@@H](C)C1CC1)C2`, the IC50 in data set [1] was greater than 10000 nM; in data set [2] it was 440 nM; in data set [3], 15 nM; in data set [4], 2380 nM.

For `Cc1ncc(-c2c(N)nn3ccc(-c4cc(C)c5c(c4)CN([C@@H](C)C4CC4)C5=O)nc23)o1`, the IC50 was found to be 2260 nM in data set [1], 230 nM in data set [2], 5.9 nM in data set [3] and 3250 nM in data set [4].

`Cc1cc(-c2ccn3ncc(-c4cnn(C)c4)c3n2)cc2c1C(=O)N([C@@H](C)C1CC1)C2`: the IC50 in data set [1] was found to be 4140 nM; in data set [2], 300 nM; in data set [3], 9.1 nM; in data set [4] it was 3440 nM.

As for `CC(=O)Nc1cc2nc(-c3cc(C)c4c(c3)CN([C@@H](C)C3CC3)C4=O)ccn2n1`, the IC50 in data set [1] is greater than 10000 nM; in data set [2], 240 nM; in data set [3] it was 4.4 nM; in data set [4], greater than 10000 nM.

`Cc1cc(-c2ccc3nc(NC(=O)C(C)C)cn3n2)cc2c1C(=O)N([C@@H](C)C1CC1)C2`: the IC50 was greater than 10000 nM in data set [1], 9400 nM in data set [2], 70 nM in data set [3] and greater than 10000 nM in data set [4].

As to `Cc1cc(-c2ccn3nc(N)c(-c4ccccn4)c3n2)cc2c1C(=O)N([C@@H](C)C1CC1)C2`, the IC50 in data set [1] is greater than 10000 nM; in data set [2], 2300 nM; in data set [3] it was 64 nM; in data set [4], greater than 10000 nM.

For `Cc1cc(-c2ccc3nc(N)c(-c4cnn(C)c4)n3n2)cc2c1C(=O)N([C@@H](C)C1CC1)C2`, the IC50 in data set [1] was greater than 10000 nM; in data set [2], 490 nM; in data set [3], 17 nM; in data set [4] it was greater than 10000 nM.

Turning to `Cc1cc(-c2ccn3nc(N)cc3n2)cc2c1C(=O)N([C@@H](C)C1CC1)C2`, the IC50 was greater than 10000 nM in data set [1], 4200 nM in data set [2], 60 nM in data set [3] and greater than 10000 nM in data set [4].

Regarding `Cc1cc(-c2ccc3nc(NC(=O)c4ccccc4)cn3n2)cc2c1C(=O)N([C@@H](C)C1CC1)C2`, the IC50 in data set [1] was greater than 10000 nM; in data set [2], 12000 nM; in data set [3] it was 93 nM; in data set [4] it was greater than 10000 nM.

For `Cc1cc(-c2ccn3nc(N)c(-c4ccncn4)c3n2)cc2c1C(=O)N([C@@H](C)C1CC1)C2`, the IC50 in data set [1] is 2730 nM; in data set [2], 550 nM; in data set [3], 7.5 nM; in data set [4], 2200 nM.

On to `CC(=O)Nc1nc2ccc(-c3cc(C)c4c(c3)CN([C@@H](C)C3CC3)C4=O)cn2n1` (racemic), for which the IC50 in data set [1] is greater than 10000 nM; in data set [2], 3000 nM; in data set [3] it was 76 nM; in data set [4], greater than 10000 nM; against PI3K p110 beta/p85 alpha, greater than 10000 nM. Also, the Ratio IC50 in the data set listed under Homo sapiens is greater than 131.

Take `Cc1c(-c2c(N)nn3ccc(-c4cc5c(c(C(F)(F)F)c4)C(=O)N([C@@H](C)C4CC4)C5)nc23)cnn1C`: the IC50 in data set [1] was found to be 1510 nM; in data set [2], 440 nM; in data set [3], 6.6 nM; in data set [4], 2240 nM.

Take `CNS(=O)(=O)c1cc(-c2ccn3nc(NC(C)=O)cc3n2)cc2c1C(=O)N([C@@H](C)C1CC1)C2`: the IC50 in data set [1] is 9850 nM; in data set [2], 240 nM; in data set [3] it was 2.7 nM; in data set [4], 4550 nM.

As for `Cc1cc(-c2ccc3nc(NS(C)(=O)=O)cn3n2)cc2c1C(=O)N([C@@H](C)C1CC1)C2`, the IC50 in data set [1] is greater than 10000 nM; in data set [2], greater than 30000 nM; in data set [3], 5300 nM; in data set [4], greater than 10000 nM.

Turning to `Cc1nn(C)cc1-c1c(N)nn2ccc(-c3cc4c(c(C(F)(F)F)c3)C(=O)N([C@@H](C)C3CC3)C4)nc12`, the IC50 in data set [1] was greater than 10000 nM; in data set [2] it was 470 nM; in data set [3], 8 nM; in data set [4], 4550 nM.

As for `Cc1cc(-c2ccn3nc(N)c(-c4ccn[nH]4)c3n2)cc2c1C(=O)N([C@@H](C)C1CC1)C2`, the IC50 was 1980 nM in data set [1], 620 nM in data set [2], 44 nM in data set [3] and 2690 nM in data set [4].

On to `CC(=O)Nc1cc2nc(-c3cc4c(c(C(F)(F)F)c3)C(=O)N([C@@H](C)C3CC3)C4)ccn2n1`, for which the IC50 worked out at 8340 nM in data set [1], 150 nM in data set [2], 2.2 nM in data set [3] and 2610 nM in data set [4]. Further, the hepatocyte CLint in data set [5] was less than 1.2 µL/min/1e6 cells. Moreover, the hepatocyte CLint at 0.5 µM in data set [6] came out at 2.4 µL/min/1e6 cells.

Regarding `Cc1cc(-c2ccn3nc(N)c(-c4cnn(CCO)c4)c3n2)cc2c1C(=O)N([C@@H](C)C1CC1)C2`, the IC50 in data set [1] turned out to be 1160 nM; in data set [2] it was 400 nM; in data set [3], 6.4 nM; in data set [4], 1160 nM.

Take `Cc1cc(-c2ccc3nc(N)cn3n2)cc2c1C(=O)N([C@@H](C)C1CC1)C2` (racemic): the IC50 in data set [1] is greater than 10000 nM; in data set [2], 1500 nM; in data set [3] it was 425 nM; in data set [4] it was greater than 10000 nM; at PI3K p110 beta/p85 alpha, greater than 10000 nM. The Ratio IC50 in the data set listed under Homo sapiens is greater than 24.

With `Cc1cc(-c2ccn3nc(N)nc3c2)cc2c1C(=O)N([C@@H](C)C1CC1)C2`, the IC50 was greater than 10000 nM in data set [1]; 3100 nM in data set [2]; 50 nM in data set [3]; greater than 10000 nM in data set [4]; greater than 10000 nM on PI3K p110 beta/p85 alpha. In the data set listed under Homo sapiens, the Ratio IC50 was greater than 200.

Take `Cc1cc(-c2ccn3nc(N)c(-c4ccc(CC(=O)O)cc4)c3n2)cc2c1C(=O)N([C@@H](C)C1CC1)C2`: the 50% inhibitory concentration (IC50) in data set [1] amounted to 5450 nM; in data set [2] it was 870 nM; in data set [3], 2.1 nM; in data set [4] it was 4660 nM.

On to `C[C@@H](C1CC1)N1Cc2cc(-c3ccn4nc(N)c(-c5ncccn5)c4n3)cc(C(F)(F)F)c2C1=O`, for which the IC50 in data set [1] was greater than 10000 nM; in data set [2] it was 800 nM; in data set [3], 53 nM; in data set [4], greater than 10000 nM.

As for `CC(=O)Nc1cn2nc(-c3cc(C)c4c(c3)CN([C@@H](C)C3CC3)C4=O)ccc2n1`, the IC50 in data set [1] is greater than 10000 nM; in data set [2], 450 nM; in data set [3] it was 5.5 nM; in data set [4] it was greater than 10000 nM; on PI3K p110 beta/p85 alpha it was greater than 10000 nM. Also, the Ratio IC50 in the data set filed under Homo sapiens was greater than 1820.

As to `CCC(=O)Nc1cn2nc(-c3cc(C)c4c(c3)CN([C@@H](C)C3CC3)C4=O)ccc2n1`, the IC50 was greater than 10000 nM in data set [1], 830 nM in data set [2], 7.3 nM in data set [3] and greater than 10000 nM in data set [4].

`Cc1cc(-c2ccc3nc(NC(=O)N4CCC[C@H]4C(N)=O)cn3n2)cc2c1C(=O)N([C@@H](C)C1CC1)C2`: the IC50 stood at 2470 nM in data set [1], 460 nM in data set [2], 2.9 nM in data set [3] and 8210 nM in data set [4].

Turning to `Cc1cc(-c2ccc3nc(N)nn3c2)cc2c1C(=O)N([C@@H](C)C1CC1)C2` (racemic), the IC50 in data set [1] was greater than 10000 nM; in data set [2], 15000 nM; in data set [3], 291 nM; in data set [4] it was greater than 10000 nM; on PI3K p110 beta/p85 alpha, greater than 10000 nM. For the same compound, in the data set filed under Homo sapiens, the Ratio IC50 is greater than 34.

`CC(=O)Nc1nn2ccc(-c3cc(C)c4c(c3)CN([C@@H](C)C3CC3)C4=O)nc2c1-c1cnn(C)c1`: the IC50 in data set [1] was greater than 10000 nM; in data set [2], 1500 nM; in data set [3], 429 nM; in data set [4], greater than 10000 nM.

In the case of `Cc1cc(-c2c(N)nn3ccc(-c4cc(C)c5c(c4)CN([C@@H](C)C4CC4)C5=O)nc23)ccc1C(=O)O`, the IC50 is 96 nM in data set [1], 210 nM in data set [2], 2.2 nM in data set [3] and 210 nM in data set [4].

On to `CC(=O)Nc1nc2cc(-c3cc(C)c4c(c3)CN([C@@H](C)C3CC3)C4=O)ccc2[nH]1` (racemic), for which the IC50 in data set [1] is greater than 10000 nM; in data set [2], 1000 nM; in data set [3] it was 482 nM; in data set [4], greater than 10000 nM; on PI3K p110 beta/p85 alpha, greater than 10000 nM. Besides, the Ratio IC50 in the data set filed under Homo sapiens is greater than 21.

By IC50 is commonly meant the concentration that gives 50% inhibition. Higher therefore signals a need for much substance.
